Test results reported in the supplement of paper PMC11208160.

Test: recombinant barcode read abundance after kanamycin selection (control-corrected) (log10(CPM+1)); higher = more efficient recombination; sequences stand for … in AGTGCAGAGAAAATCGGCCAGTTTTCTCTGCCTGCAGTCCGCATGCCGT…AGATTTATGCAGCGGACTGCCTTTCTCCCAAAGTGATAAACCGGACAGTATCATGGACCGGTTTTCCCGGTAATCCGTATTTGCAAGGTTGGTTTCACT; site = the 11-nt target
Method in brief: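 Recombination efficiency comes from barcode counts at recombinant junctions, converted to counts per million, averaged and corrected against the control. Values appear as log10(CPM+1). They were obtained from a pooled E. coli screen in which each oligo paired a target with an IS621 bridge RNA target-binding loop, and cells were plated in duplicate on chloramphenicol/ampicillin LB agar or on chloramphenicol/ampicillin/kanamycin with 0.1 mM IPTG.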
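Further: IS621 recombinase and bridge RNA in Escherichia coli cells.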

Sequence	recombinant barcode read abundance (log10)
GGCAAGACTTGGGTTCTAACCTGTTGCCT (site GGAAAGACTAG)	0
AATACCTCTTGGGTTCTAACCTGTTGCCT (site AATACCTCTAG)	1.03
ACTGAGTCTTGGGTTCTAACCTGTTGCAA (site ACTGAGTCTTT)	1.87
TCGCGAACTTGGGTTCTAACCTGTTGCCT (site TCGCGAACTAG)	0.252
TCCGTATCTTGGGTTCTAACCTGTTGCAG (site GAGTGGCCTTC)	0.16
TCTGAGGCTTGGGTTCTAACCTGTTGCTG (site TCTGAGGCTCA)	0.455
GATCAACCTTGGGTTCTAACCTGTTGCCT (site GCTCAACCTAG)	0.0583
CTTCGAGCTTGGGTTCTAACCTGTTGCGG (site CTTCGAGCTCA)	0.0538
GGTAACCCTTGGGTTCTAACCTGTTGCGG (site GGTCACCCTCC)	0.0921
TAATTGCCTTGGGTTCTAACCTGTTGCCT (site TATTTGCCTAG)	0.0725
CTAATTACTTGGGTTCTAACCTGTTGCCT (site CTACTTACTAG)	0.0931
ATGGCCTCTTGGGTTCTAACCTGTTGCCT (site ATGTCCTCTAG)	0.0804
CTATGACCTTGGGTTCTAACCTGTTGCCT (site CTATGACCTAG)	1.9
GGAGGGACTTGGGTTCTAACCTGTTGCCT (site GAAGGGACTAG)	1.38
TTGGCCACTTGGGTTCTAACCTGTTGCCT (site TTGGGCACTAG)	0.121
TAGCACCCTTGGGTTCTAACCTGTTGCCC (site TAGCACCCTGG)	1.69
TAGAAGACTTGGGTTCTAACCTGTTGCTA (site TAGAAGACTAA)	0.115
ACCAATTCTTGGGTTCTAACCTGTTGCCT (site ACCAATCCTAG)	0.111
ACAGGTGCTTGGGTTCTAACCTGTTGCCT (site ACATGTGCTAG)	0.0807
GACGCCTCTTGGGTTCTAACCTGTTGCGC (site TTGAAACCTAG)	0.26
GAGCGAGCTTGGGTTCTAACCTGTTGCTG (site GAGCGAGCTCA)	1.5
GGGGCTTCTTGGGTTCTAACCTGTTGCTT (site GGGGCATCTAA)	0.129

Sequence	recombinant barcode read abundance (log10)
CTTAGGACTTGGGTTCTAACCTGTTGCCT (site CTTAGGACTTG)	0.0473
GGTAGGACTTGGGTTCTAACCTGTTGCGG (site GGTAGGACTCC)	2
CCTGGTCCTTGGGTTCTAACCTGTTGCAT (site CCTGGTCCTAT)	1.42
GGTCGTGCTTGGGTTCTAACCTGTTGCCT (site GGTCGAGCTAG)	0.304
GTCCGCTCTTGGGTTCTAACCTGTTGCCT (site GTCCGCTCTAG)	2.37
GTCTGCCCTTGGGTTCTAACCTGTTGCCT (site GTCTGCCCTAG)	1.73
TAACACTCTTGGGTTCTAACCTGTTGCTT (site TAACACTCTAA)	1.51
CGACATCCTTGGGTTCTAACCTGTTGCCT (site CGACATCCTAG)	0.214
TGACGTCCTTGGGTTCTAACCTGTTGCAT (site TGACGTCCTAG)	0.0926
CTTCAACCTTGGGTTCTAACCTGTTGCCT (site CTTCAGCCTAG)	0.0746
CACTTAGCTTGGGTTCTAACCTGTTGCCT (site CACTTATCTAG)	0.0252
TTGGGTCCTTGGGTTCTAACCTGTTGCGT (site TTGAGTCCTAG)	0.15
GTGATGTCTTGGGTTCTAACCTGTTGCCT (site GGGATGTCTAG)	0.279
TTGGTCCCTTGGGTTCTAACCTGTTGCCT (site TTGGTCCCTAG)	2.93
TGTCGGACTTGGGTTCTAACCTGTTGCAG (site TGTCGGACTCT)	1.01
CTAGTACCTTGGGTTCTAACCTGTTGCCT (site CTAGTACCTAG)	1.43
CTCGGATCTTGGGTTCTAACCTGTTGCTG (site CTCGGATCTAA)	0.296
TCCGTGACTTGGGTTCTAACCTGTTGCCT (site TCCGTGGCTAG)	0.436
CTAAGCTCTTGGGTTCTAACCTGTTGCTG (site CTAAGCTCTGA)	0.23
GCATCTACTTGGGTTCTAACCTGTTGCCT (site GAATCTACTAG)	0.101
TTCTGGGCTTGGGTTCTAACCTGTTGCCT (site TTCTGGGCTAG)	0
CTCTAACCTTGGGTTCTAACCTGTTGCGT (site CTCTAGCCTAC)	0.413

Sequence	recombinant barcode read abundance (log10)
TGTAGTCCTTGGGTTCTAACCTGTTGCGT (site TGTAGTCCTAA)	0.062
GCGCGTTCTTGGGTTCTAACCTGTTGCCT (site GCGCGTTCTAG)	1.2
GGCTTGACTTGGGTTCTAACCTGTTGCCT (site CCAGGTGCTCC)	0.304
TAGTGTCCTTGGGTTCTAACCTGTTGCCA (site TAGTGTCCTTG)	0.357
AATTGTCCTTGGGTTCTAACCTGTTGCCT (site AATTGTCCTAC)	0.0374
CGCTGTCCTTGGGTTCTAACCTGTTGCTT (site CGCTGCCCTAA)	0.148
GTCGGAGCTTGGGTTCTAACCTGTTGCAG (site GTCGGAGCTCC)	0.165
GGTAAATCTTGGGTTCTAACCTGTTGCCT (site GGTAAATCTAG)	0.459
ACCCAATCTTGGGTTCTAACCTGTTGCCT (site ACCCAAACTAG)	0.266
ATTAAGACTTGGGTTCTAACCTGTTGCCT (site ATGAAGACTAG)	0.11
ATTTGCACTTGGGTTCTAACCTGTTGCCT (site ATTTGAACTAG)	0.14
GTTTCGACTTGGGTTCTAACCTGTTGCTA (site GTTTCGACTTA)	0.238
GCATGAGCTTGGGTTCTAACCTGTTGCCT (site GCGTGAGCTAG)	0.136
GCGTCGGCTTGGGTTCTAACCTGTTGCCT (site GCATCGGCTAG)	0.474
CGAGCAGCTTGGGTTCTAACCTGTTGCCT (site CGAGCAGCTAG)	0.395
GCACATCCTTGGGTTCTAACCTGTTGCGT (site GCAAATCCTAG)	0.154
ACACTGTCTTGGGTTCTAACCTGTTGCGG (site ACATTGTCTCC)	0.429
GCCCTCCCTTGGGTTCTAACCTGTTGCCT (site GCGCTCCCTAG)	0.0524
ACTCTGGCTTGGGTTCTAACCTGTTGCCT (site ACTCTGGCTAG)	0.372
TGGTTCGCTTGGGTTCTAACCTGTTGCCT (site TGGTGCGCTAG)	0.0185
CTAACTCCTTGGGTTCTAACCTGTTGCAT (site CTAACTCCTAT)	1.1
CGTAATGCTTGGGTTCTAACCTGTTGCCT (site CGGAATGCTAG)	0.0453

Sequence	recombinant barcode read abundance (log10)
AGAGAGGCTTGGGTTCTAACCTGTTGCGG (site AGAGAGGCTCC)	1.82
AGACCCTCTTGGGTTCTAACCTGTTGCCT (site AGACCCTCTAG)	2.91
TCGCATTCTTGGGTTCTAACCTGTTGCAT (site TCGCGTTCTAA)	0.198
ATAAGCCCTTGGGTTCTAACCTGTTGCCT (site AGAAGCCCTAG)	0.166
TACGCCTCTTGGGTTCTAACCTGTTGCCT (site GACGCCTCTAG)	0.249
ACTACCTCTTGGGTTCTAACCTGTTGCCT (site AATACCTCTAG)	0.0169
ACTCTGGCTTGGGTTCTAACCTGTTGCCT (site ACGCTGGCTAG)	0.254
ACATAAGCTTGGGTTCTAACCTGTTGCCT (site ACATAAGCTAG)	1.1
TATCCGACTTGGGTTCTAACCTGTTGCCC (site TATCCGACTCG)	0.146
CACAGGGCTTGGGTTCTAACCTGTTGCGG (site CACAGGGCTCC)	2.39
TGATATTCTTGGGTTCTAACCTGTTGCCT (site ACCAGCCCTCA)	0.448
TCTGGGGCTTGGGTTCTAACCTGTTGCGG (site TCTGGGGCTCT)	2.22
GGAGGACCTTGGGTTCTAACCTGTTGCTT (site GGAAGACCTTA)	0.19
CGTAGGACTTGGGTTCTAACCTGTTGCCT (site CGTAGGACTAG)	0.209
CAGTAGTCTTGGGTTCTAACCTGTTGCCT (site CAGTAATCTAG)	0.579
ACGCGTTCTTGGGTTCTAACCTGTTGCAT (site ACGCGTTCTAT)	0.0272
ATGGATCCTTGGGTTCTAACCTGTTGCGT (site AGGGATCCTAC)	0.758
TCCTACCCTTGGGTTCTAACCTGTTGCCT (site TGCTACCCTAG)	0.052
GACACGCCTTGGGTTCTAACCTGTTGCGT (site GACACGCCTAG)	0.156
ACTGTAACTTGGGTTCTAACCTGTTGCTT (site ACTGTAACTAA)	1.06
